Experimental data: patent US11512053B2, “Arginine methyltransferase inhibitors and uses thereof” (priority 2013, dated 2022)
Where two headings read alike, the source gives them in different places.

Biological target: T1, human CARM1 (PRMT4) (Flag- and His-tagged) (Homo sapiens, UniProt Q86X55)
T1 construct: Flag-CARM1-His; made in house; host or cells: HEK 293F cells (BacMam baculovirus)
T1 sequence (Q86X55 1-585 isoform Q86X55-1): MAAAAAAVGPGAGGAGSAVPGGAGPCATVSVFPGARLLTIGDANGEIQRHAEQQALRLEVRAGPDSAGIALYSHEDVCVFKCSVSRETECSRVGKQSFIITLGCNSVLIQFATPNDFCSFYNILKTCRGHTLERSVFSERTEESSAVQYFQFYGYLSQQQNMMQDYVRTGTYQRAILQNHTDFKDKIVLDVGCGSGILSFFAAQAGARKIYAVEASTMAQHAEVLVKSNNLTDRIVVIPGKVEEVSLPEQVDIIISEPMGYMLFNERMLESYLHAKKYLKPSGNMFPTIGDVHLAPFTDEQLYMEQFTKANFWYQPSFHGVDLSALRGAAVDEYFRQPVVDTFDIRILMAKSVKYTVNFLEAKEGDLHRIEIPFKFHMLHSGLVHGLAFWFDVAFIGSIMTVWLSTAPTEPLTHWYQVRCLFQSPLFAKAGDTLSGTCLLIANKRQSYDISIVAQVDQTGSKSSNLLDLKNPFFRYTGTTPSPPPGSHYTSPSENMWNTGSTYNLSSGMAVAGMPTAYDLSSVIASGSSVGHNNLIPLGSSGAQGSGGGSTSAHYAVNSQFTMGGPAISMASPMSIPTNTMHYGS
Experiment: CARM1 Biochemical Assay (3H-SAM Flashplate, peptide substrate)
Source text: General Materials. S-adenosylmethionine (SAM), S-adenosylhomocysteine (SAH), bicine, Tween20, dimethylsulfoxide (DMSO), bovine skin gelatin (BSG), sodium butyrate and Tris(2-carboxyethyl)phosphine hydrochloride solution (TCEP) were purchased from Sigma-Aldrich at the highest level of purity possible. ^3H-SAM was purchase from American Radiolabeled Chemicals with a specific activity of 80 Ci/mmol. 384-well streptavidin Flashplates were purchased from PerkinElmer.
Substrates. Peptide representative of human histone H3 residues 16-30 was synthesized with an N-terminal linker-affinity tag motif and a C-terminal amide cap by 21st Century Biochemicals. The peptide was purified by high-performance liquid chromatography (HPLC) to greater than 95% purity and confirmed by liquid chromatography mass spectrometry (LC-MS). The sequence was Biot-Ahx-[…]-amide and contained a monomethylated arginine at position 26 (SEQ ID NO.:14).
Molecular Biology: Human CARM1 (PRMT4) (NM_199141.1) transcript clone was amplified from an HEK 293 cDNA library, incorporating a flanking 5′ sequence encoding a FLAG tag ([…]) (SEQ ID NO.:6) fused directly to Ala 2 of CARM1 and 3′ sequence encoding a hexa His sequence ([…]) (SEQ ID NO.:15) fused directly to Ser 608. The gene sequence encoding isoform1 containing a deletion of amino acids 539-561 was amplified subsequently and subcloned into pFastBacMam (Viva Biotech).
Protein Expression. Recombinant baculovirus were generated according to Bac-to-Bac kit instructions (Life Technologies). […] Infections were carried out at 37° C. for 48 hours, harvested by centrifugation, and stored at −80° C. for purification.
Protein Purification. […] Column was washed with 500 mM NaCl in buffer A and Flag-CARM1-His was eluted with 200 ug/ml FLAG peptide in buffer A. Pooled fractions were dialyzed in 20 mM Tris, 150 mM NaCl, 5% glycerol and 1 mM DTT, pH 7.8. The purity of recovered protein was 94.
General Procedure for CARM1 Enzyme Assays on Peptide Substrates. The assays were all performed in a buffer consisting of 20 mM Bicine (pH=7.6), 1 mM TCEP, 0.005% BSG, and 0.002% Tween 20, prepared on the day of use. Compounds in 100% DMSO (1 ul) were spotted into a polypropylene 384-well V-bottom plates (Greiner) using a Platemate Plus outfitted with a 384-channel head (Thermo Scientific). DMSO (1 ul) was added to Columns 11, 12, 23, 24, rows A-H for the maximum signal control and 1 ul of SAH, a known product and inhibitor of CARM1, was added to columns 11, 12, 23, 24, rows I-P for the minimum signal control. A cocktail (40 ul) containing the CARM1 enzyme was added by Multidrop Combi (Thermo-Fisher). The compounds were allowed to incubate with CARM1 for 30 min at room temperature, then a cocktail (10 ul) containing ^3H-SAM and peptide was added to initiate the reaction (final volume=51 ul). The final concentrations of the components were as follows: CARM1 was 0.25 nM, ^3H-SAM was 30 nM, peptide was 250 nM, SAH in the minimum signal control wells was 1 mM, and the DMSO concentration was 2%. The assays were stopped by the addition of non-radiolabeled SAM (10 ul) to a final concentration of 300 uM, which dilutes the ^3H-SAM to a level where its incorporation into the peptide substrate is no longer detectable. 50 ul of the reaction in the 384-well polypropylene plate was then transferred to a 384-well Flashplate and the biotinylated peptides were allowed to bind to the streptavidin surface for at least 1 hour before being washed once with 0.1% Tween20 in a Biotek ELx405 plate washer. The plates were then read in a PerkinElmer TopCount plate reader to measure the quantity of ^3H-labeled peptide bound to the Flashplate surface, measured as disintegrations per minute (dpm) or alternatively, referred to as counts per minute (cpm).
Where dpm=disintegrations per minute, cmpd=signal in assay well, and min and max are the respective minimum and maximum signal controls. […]

[1] = single experiment or average of multiple experiments

Row | Structure (SMILES) | IC50 [1] | IC50
1 | CNCCN(C)Cc1c[nH]nc1C#Cc1cccc(OC)c1 [Compound 1] | 260 nM | 
2 | CNCCN(C)Cc1c[nH]nc1C#Cc1ccc(C(C)(C)C)cc1 [Compound 2] | 110 nM | 
3 | CNCCN(C)Cc1c[nH]nc1C#Cc1ccc(F)cc1 [Compound 4] | 500 nM | 
4 | CNCCN(C)Cc1c[nH]nc1/C=C/c1ccc(-c2ccccc2)cc1 [Compound 5] | 310 nM | 
5 | CNCCN(C)Cc1c[nH]nc1/C=C/c1ccc(OC)cc1 [Compound 7] | 90 nM | 
6 | Cc1ccc(/C=C/c2n[nH]cc2CN(C)CCN)cc1 [Compound 8] | 370 nM | 
7 | CN(CCN)Cc1c[nH]nc1C1=CCOCC1 [Compound 10] | > 10000 nM | > 10000 nM
8 | CN(CCN)Cc1c[nH]nc1C1CC1 [Compound 12] | > 10000 nM | > 10000 nM
9 | COc1cccc(/C=C/c2n[nH]cc2CN(C)CCN)c1 [Compound 17] | 90 nM | 
10 | COC/C=C/c1n[nH]cc1CN(C)CCN [Compound 19] | 3780 nM | 
11 | CC(C)c1n[nH]cc1CN(C)CCN [Compound 21] | > 10000 nM | > 10000 nM
12 | CN(CCN)Cc1c[nH]nc1C1CCCCC1 [Compound 22] | 3770 nM | 
13 | CN(CCN)Cc1c[nH]nc1CCc1ccc(F)cc1 [Compound 23, N^1-((3-(4-fluorophenethyl)-1H-pyrazol-4-yl)methyl)-N^1-methylethane-1,2-diamine] | 2780 nM | 

More lines, main results first:

Row | IC50 [1] | Structure (SMILES) | IC50
14 | 570 nM | CNCCN(C)Cc1c[nH]nc1/C=C/c1ccc(C(F)(F)F)cc1 [Compound 6] | 
15 | 50 nM | COc1cc(/C=C/c2n[nH]cc2CN(C)CCN)cc(OC)c1 [Compound 11] | 
16 | 200 nM | CN(CCN)Cc1c[nH]nc1/C=C/c1ccc(F)cc1F [Compound 13] | 
17 | 510 nM | CN(CCN)Cc1c[nH]nc1/C=C/c1cc(C(F)(F)F)cc(C(F)(F)F)c1 [Compound 14] | 
18 | 310 nM | CN(CCN)Cc1c[nH]nc1/C=C/c1cc(F)cc(F)c1 [Compound 15] | 
19 | 110 nM | CN(CCN)Cc1c[nH]nc1/C=C/c1cccc(C(F)(F)F)c1 [Compound 16] | 
20 | 100 nM | CN(CCN)Cc1c[nH]nc1/C=C/c1ccc(C(F)(F)F)cc1 [Compound 18] | 
21 | 250 nM | CN(CCN)Cc1c[nH]nc1/C=C/c1cccc(F)c1 [Compound 20] | 
